According to publication doi:10.1101/2023.05.09.538545v2, “Engineering dynamic gates in binding pocket of penicillin G acylase to selectively degrade bacterial signaling molecules” (biorxiv, 2024):

Molecular target: T1, ecPGA (Escherichia coli penicillin G acylase) (Escherichia coli, UniProt P06875)
T1 construct: gene pac; mature alpha/beta heterodimer cut from one precursor (signal peptide and spacer removed); ecpga gene in pET-26b, E. coli BL21(DE3), purified after Kutzbach and Rauenbusch; His-tagged version made for melting analysis; WT source plasmid pKA18
T1 sequence (P06875 27-235): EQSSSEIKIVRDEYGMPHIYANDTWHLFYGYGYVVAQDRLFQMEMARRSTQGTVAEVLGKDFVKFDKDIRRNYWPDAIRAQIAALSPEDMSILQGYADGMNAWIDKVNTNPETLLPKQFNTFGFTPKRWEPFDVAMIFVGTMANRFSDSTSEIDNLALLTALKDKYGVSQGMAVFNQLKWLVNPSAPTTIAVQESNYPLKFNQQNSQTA
T1 sequence (P06875 290-846): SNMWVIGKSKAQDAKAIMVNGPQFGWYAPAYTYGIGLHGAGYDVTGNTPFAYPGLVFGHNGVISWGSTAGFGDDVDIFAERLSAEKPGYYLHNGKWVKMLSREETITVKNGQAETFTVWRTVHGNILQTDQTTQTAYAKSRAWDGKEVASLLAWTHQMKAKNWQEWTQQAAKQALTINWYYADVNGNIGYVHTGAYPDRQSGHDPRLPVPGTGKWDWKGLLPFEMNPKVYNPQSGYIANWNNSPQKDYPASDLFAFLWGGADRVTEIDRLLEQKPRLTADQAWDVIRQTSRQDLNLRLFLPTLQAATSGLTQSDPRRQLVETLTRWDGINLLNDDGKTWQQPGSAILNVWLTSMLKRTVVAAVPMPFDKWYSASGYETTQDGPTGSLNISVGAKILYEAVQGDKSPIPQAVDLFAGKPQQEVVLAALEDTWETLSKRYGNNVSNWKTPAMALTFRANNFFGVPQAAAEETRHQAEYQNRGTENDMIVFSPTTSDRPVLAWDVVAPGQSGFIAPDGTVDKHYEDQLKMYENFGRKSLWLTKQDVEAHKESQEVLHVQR
Experiment: HPLC of AHL hydrolysis at […] nm, initial rates
Type: biochemical

## CCCCCCCC(=O)N[C@H]1CCOC1=O [C08, N-octanoyl-L-homoserine lactone]
  Km: 700 ± 40 µM
